The subject of test [1] is NMDA receptor. In words: Electrophysiology, NMDA response in rat hippocampal neurons. The format is cell-based. The settings on record: FIG. 4; average of 6 experiments. How it is done: Experiments were carried out in 35-mm tissue culture dishes on the stage of an inverted phase contrast microscope. Whole cell currents were recorded by the whole cell variant of the patch clamp technique (Hamill, O. P., et al., Pfagers Arch. 891:85-100 (1981)). Patch electrodes had tip openings of about […] and resistances of 3-8 M.OMEGA. using an intracellular solution comprised of the following (in mM): 140 CsCl, 11 EGTA, and 10 HEPES (pH adjusted to 7.2 with CsOH). In experiments in which a high concentration of glycine was used, the intracellular solution was replaced with a low chloride (10 mM) pipette solution. This solution contained the following (in mM): 140 potassium gluconate, 10 KCl, 8 sodium gluconate, 11 EGTA, and 10 HEPES (pH adjusted to 7.2 with KOH). […]
The degree of modulation of the amino acid response by steroid, the percentage change, is expressed as [(I'/I)-1]×100%, where I is the average of control responses obtained from the same cell before application and after washout of steroid and I' is the agonist-induced current in the presence of steroid. Throughout, results are expressed as mean±S.E.; statistical comparison of groups was carried out using Student's t test.
The electrophysiology of additional pregnenolone derivatives were analyzed as described in Example 1. […]

In test [2] the test system is NMDA-induced seizure and death in mice. Put plainly: NMDA-induced seizure and death (100 mg/kg NMDA challenge). The test is classed as in vivo. The conditions noted are these: steroid 25 mg/kg i.p., DMSO 50%. How it is done:
5β3αHS (25 mg/kg, i.p.) protects mice from NMDA-induced death. None of the steroids tested altered the latency to NMDA-induced seizure. However, 100% of the animals that received 5β3αHS survived the 100 mg/kg NMDA challenge compared to 50% for DMSO, 75% for 5β3αS and E2 (3)HS, and 50% for E2 (17)HS.

For test [3], the system named is NMDA-induced convulsion and mortality in mice. In words: NMDA-induced convulsion test (200 mg/kg NMDA). The test is classed as in vivo. How it is done: Male CD-1 mice (Charles River Laboratories, Wilmington, Mass.) weighing 20-25 g were used for the NMDA-induced convulsion test. Mice were injected intraperitoneally with the test compound dissolved in DMSO or with vehicle. NMDA (200 mg/kg, i.p.) was injected either 2 minutes after intravenous injection of test compound or 20 minutes after intraperitoneal injection of test compound.

Another test deals with kainate receptors. Put plainly: Whole cell patch clamp, kainate-induced current in cultured chick spinal cord neurons. The format is cell-based. The settings on record: 100 μM steroid; -70 mV; sulfate. How it is done: Cultures of dissociated spinal cord neurons were prepared as previously described (Farb, D. H., et al., J. Cell Biol., 80:651-661 (1979)). Briefly, the dissociated cells from 7-day chick embryos were plated on collagen-coated 35-mm tissue culture dishes in Eagle's minimum essential medium supplemented with 2.4 mM glutamine, 10% (v/v) heat-inactivated horse serum, 5% (v/v) chick embryo extract and antibiotics. Cultures were maintained in a humidified atmosphere of 5% CO2, 95% air at 37°. Cytarabine (1 μM) was added to the culture medium after 36 hr. of the initial plating to inhibit the proliferation of non-neuronal cells. One day later, this medium was replaced with a similar medium supplemented with 20.5 mM glucose, 19 mM KCl, and 2.5% chick embryo extract. Fresh medium was added twice weekly. Cultured neurons were used in experiments within 2-4 weeks after plating.
Experiments were carried out in 35-mm tissue culture dishes on the stage of an inverted phase contrast microscope. Whole cell currents were recorded by the whole cell variant of the patch clamp technique (Hamill, O. P., et al., Pfagers Arch. 891:85-100 (1981)). Patch electrodes had tip openings of about […] and resistances of 3-8 M.OMEGA. using an intracellular solution comprised of the following (in mM): 140 CsCl, 11 EGTA, and 10 HEPES (pH adjusted to 7.2 with CsOH). […]

Test [4] has as its system NMDA receptor. The conditions noted are these: Wu et al. 1991, cited from earlier work.
The mark [5] stands for this setting: mice, i.p., high dose, time limit 30 min.

The values that follow come from patent US6083941A, “Inhibition of NMDA receptor activity by pregnenolone sulfate derivatives” (Trustees of Boston University, priority 1998, dated 2000).

pEC50: −log10 of the molar value. Where “and” joins values, the source holds several entries; their conditions need not be identical. Equal entries are not always repeated. Structures can show the parent of a compound that is named as a salt.

The pEC50 is −log10 of the EC50, conventionally taken in molar units.

`CC(=O)[C@H]1CC[C@H]2[C@@H]3CC[C@@H]4C[C@H](OC(=O)CCC(=O)O)CC[C@]4(C)[C@H]3CC[C@]12C` [5β3αHS, 3α-hydroxy-5β-pregnan-20-one hemisuccinate]: the “% inhibition of NMDA response in rat hippocampal cells” value in the test on NMDA receptor [1] is “approximately 20%”. Further, in test [2], the “animals that survived the 100 mg/kg NMDA challenge” value was found to be 100%. In test [3] (mice, i.p., FIG. 7), the “mortality induced by 200 mg/kg of NMDA” value is “dose-dependently inhibited mortality” and the “tonic seizures induced by 200 mg/kg of NMDA” value was “dose-dependently inhibited tonic seizures”. Besides, in test [3] (setting [5]), the “mortality induced by NMDA at the high dose” value is on record as “completely block the mortality” and the “tonic seizures induced by NMDA at the high dose” value was “completely block the seizures”.

In the case of `CC(=O)[C@H]1CC[C@H]2[C@@H]3CC[C@@H]4C[C@H](OS(=O)(=O)O)CC[C@]4(C)[C@H]3CC[C@]12C` [5β3αS, 3α-hydroxy-5β-pregnan-20-one sulfate], in the test with kainate receptors, the “inhibition of the 50 μM kainate-induced current” value was 37% and 37.4±4.7%. The “animals that survived the 100 mg/kg NMDA challenge” value in test [2] was determined as 75%. The “seizures and mortality induced by NMDA” value in test [3] (mice, i.v. administration, FIG. 8) is “effective in blocking seizures and mortality”. In addition, the “latency to onset of seizures” value in test [3] (printed:) is listed as “increases the latency to onset of seizures”. Besides, in test [3] (printed: rats following i.v. injection of 200 mg/kg NMDA), the “mortality” value is reported as “decreases mortality”.

In the case of `CC(=O)C1CCC2C3CC=C4CC(OS(=O)(=O)O)CCC4(C)C3CCC12C` (stereo not shown) [PS, pregnenolone sulfate], the “potentiation of the NMDA response” value in the test with NMDA receptor [4] is 197%. The negative-log EC50 (pEC50) on NMDA receptor [4] (read-out: EC50 for potentiation of the NMDA response) is 4.24.
